This note sets out measurements from ChEMBL document CHEMBL1201862, “PubChem BioAssay data set” (2004).

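Where inhibition never reached the appropriate level, the endpoint shown equals the highest concentration tested. Otherwise, values were interpolated linearly from a five-concentration, 48-hour dose response in 96-well plates. Here, GI50 denotes the concentration required for 50% inhibition of growth.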 Calls of active or inactive are those of the source. Rule as the data show it: active = GI50 up to about 1.1 µM and inactive = higher. A value given as a limit tells only on which side of the number the result lay.

Common to all, as to experiment: growth of human tumour cells (NCI), 48 h
In assay [1] the test system is SF-295.
Assay [2] deals with SF-268.
The subject of assay [3] is UO-31.
Assay [4] concerns SN12C.
In assay [5] the test system is HCT-116.
Assay [6] relates to MDA-MB-435.
The test system of assay [7] is KM12.
Assay [8] concerns BT-549.
Assay [9] has as its system UACC-62.
In assay [10] the test system is LOX IMVI.
Assay [11] relates to HOP-62.
The test system of assay [12] is A498.
The subject of assay [13] is NCI-H226.
Assay [14] has as its system Hs-578T.
In assay [15] the test system is PC-3.
Assay [16] has as its system SR.
The test system of assay [17] is NCI-H460.
Assay [18] deals with EKVX.
Assay [19] concerns U-251.
Assay [20] concerns SK-MEL-28.

`O=C(N/N=C\c1cccc2ccccc12)Nc1ccc([N+](=O)[O-])cc1`: the GI50 in [1] was 13.7 µM (inactive); in [2] it was 19.5 µM (inactive); in [3], 12.8 µM (inactive); in assay [4], 18.5 µM (inactive); in assay [5] it was 6.28 µM (inactive); in assay [6], 18.9 µM (inactive). Further, the GI50 in [7] was 10.9 µM (inactive); in assay [8], 20 µM (inactive); in assay [9], 18.1 µM (inactive); in [10], 21.6 µM (inactive); in assay [11], 17.9 µM (inactive); in assay [12] it was 2.66 µM (inactive). Further, the GI50 in assay [13] is 23.3 µM (inactive); in assay [14], 25.4 µM (inactive); in [15], 6.95 µM (inactive); in assay [16], > 27.6 µM (inactive); in assay [17], 10.9 µM (inactive); in assay [18], > 39.4 µM (inactive). The GI50 in [19] is 17.1 µM (inactive); in [20], 27.7 µM (inactive).

Consider `CC(C)C1=C(Cc2ccccc2)C(=O)O/C1=C\c1ccc(O)c(Cl)c1`, for which the GI50 in [1] was 16 µM (inactive); in assay [2], 16.6 µM (inactive); in assay [3], 14.4 µM (inactive); in assay [4], 16.9 µM (inactive); in assay [5] it was 15.5 µM (inactive); in assay [6], 17 µM (inactive). Besides, the GI50 is 18.1 µM (inactive) in [7]; 22.2 µM (inactive) in assay [8]; 14.8 µM (inactive) in [9]; 18.4 µM (inactive) in [10]; 17.7 µM (inactive) in [11]; 17.6 µM (inactive) in [12]. Also, the GI50 in assay [13] was 16.6 µM (inactive); in assay [14] it was 13.6 µM (inactive); in [15], 17.9 µM (inactive); in assay [16] it was 10.4 µM (inactive); in assay [17], 17.4 µM (inactive); in assay [18], 16.6 µM (inactive). Also, the GI50 in [19] is 16.7 µM (inactive); in [20], 16.9 µM (inactive).

With `C=C(C)[C@@H]1CC=C(CO)CC1` [PERILLYL ALCOHOL], the GI50 in [1] is 266 µM (inactive); in assay [2], 84.1 µM (inactive); in assay [3] it was 410 µM (inactive); in assay [4] it was 555 µM (inactive); in assay [5], 96.2 µM (inactive); in [6] it was > 10 µM (inactive). For the same compound, the GI50 in assay [7] is 316 µM (inactive); in assay [8], > 10 µM (inactive); in assay [9] it was 236 µM (inactive); in [10] it was 195 µM (inactive); in [11], 184 µM (inactive); in assay [12] it was 548 µM (inactive). Further, the GI50 in [13] was 251 µM (inactive); in assay [14], > 10 µM (inactive); in assay [15], > 10 µM (inactive); in assay [16], 152 µM (inactive); in [17], 454 µM (inactive); in assay [18], 617 µM (inactive). The GI50 is 125 µM (inactive) in assay [19] and 201 µM (inactive) in assay [20].

For `O=C(CCCN1CCC2(CC1)C(=O)NC(=O)N2c1ccccc1)c1ccc(F)cc1`, the GI50 in [1], in [2], in assay [3], in assay [4], in assay [5] and in assay [6] was > 100 µM (inactive) each time. Besides, the GI50 in [7], in assay [8], in [9], in assay [10], in assay [11] and in assay [12] was > 100 µM (inactive) throughout. Also, the GI50 in [13], in [14], in [15], in assay [16], in assay [17] and in assay [18] was > 100 µM (inactive) in each case. For the same compound, the GI50 in [19] and in assay [20] was > 100 µM (inactive) in each case.

In the case of `CN1CCN(c2n[nH]c(=O)c3c2nnn3C2CCCCC2)CC1`, the GI50 in assay [1], in assay [2], in [3], in assay [4], in assay [5] and in [6] was > 100 µM (inactive) throughout. The GI50 in assay [7], in assay [8], in [9], in assay [10], in [11] and in [12] was > 100 µM (inactive) each time. Further, the GI50 in [13], in assay [14], in [15], in [16], in assay [17] and in assay [18] was > 100 µM (inactive) in each case. Further, the GI50 in assay [19] and in assay [20] was > 100 µM (inactive) in each case.

Regarding `CC(C)C1(C)N=C(C(F)(F)F)c2cc(C(=O)C(F)(F)F)c3ccccc3c2N1` (stereo not given), the GI50 in assay [1] is 3.38 µM (inactive); in assay [2], 3.02 µM (inactive); in assay [3] it was 5.9 µM (inactive); in assay [4], 2.91 µM (inactive); in assay [5], 2.94 µM (inactive); in assay [6], 3.21 µM (inactive). Also, the GI50 in [7] was 3.31 µM (inactive); in [8], 3.08 µM (inactive); in assay [9] it was 4.33 µM (inactive); in assay [10], 2.45 µM (inactive); in [11], 4.9 µM (inactive); in assay [12] it was 14.9 µM (inactive). The GI50 is 12.9 µM (inactive) in [13]; 2.5 µM (inactive) in [14]; 2.52 µM (inactive) in assay [15]; 4.39 µM (inactive) in assay [16]; 4.41 µM (inactive) in [17]; 4.91 µM (inactive) in assay [18]. Further, the GI50 in assay [19] is 2.91 µM (inactive); in assay [20], 5.22 µM (inactive).

`NC(=O)CC(N)c1nnn[nH]1` (stereo not given): the GI50 in assay [1], in [2], in [3], in assay [4], in [5] and in [6] was > 100 µM (inactive) throughout. The GI50 in assay [7], in [8], in assay [9], in [10], in [11] and in assay [12] was > 100 µM (inactive) in each case. The GI50 in assay [13], in assay [14], in assay [15], in assay [16], in [17] and in [18] was > 100 µM (inactive) each time. Besides, the GI50 in assay [19] and in assay [20] was > 100 µM (inactive) in each case.

In the case of `CN(CCNC(=O)c1cc(-c2ccccc2)nc2ccccc12)CCNC(=O)c1cc(-c2ccccc2)nc2ccccc12`, the GI50 in assay [1] was 13.2 µM (inactive); in [2], 8.51 µM (inactive); in [3], 7.1 µM (inactive); in [4] it was > 100 µM (inactive); in assay [5], 8.05 µM (inactive); in assay [6], 6.92 µM (inactive). In addition, the GI50 was 4.46 µM (inactive) in [7]; > 100 µM (inactive) in assay [8]; 12.9 µM (inactive) in assay [9]; 3.89 µM (inactive) in assay [10]; 26.1 µM (inactive) in assay [11]; 12.2 µM (inactive) in [12]. Further, the GI50 in assay [13] is 14.6 µM (inactive); in assay [14], 6.18 µM (inactive); in assay [15], 10.3 µM (inactive); in assay [16], 2.98 µM (inactive); in assay [17], 8.87 µM (inactive); in assay [18], 15.9 µM (inactive). Also, the GI50 was 8.75 µM (inactive) in assay [19] and 2.19 µM (inactive) in [20].

Turning to `O=C1C=CC(=O)c2c1ccc1c3ccccc3n(Cc3ccccc3)c21`, the GI50 in [1] was > 100 µM (inactive); in assay [2] it was 32.1 µM (inactive); in assay [3], 20.2 µM (inactive); in assay [4], 21.6 µM (inactive); in assay [5], 19.1 µM (inactive); in [6], 26.1 µM (inactive). In addition, the GI50 in assay [7] is > 57.5 µM (inactive); in assay [8], 20.4 µM (inactive); in assay [9], 25.4 µM (inactive); in [10], 20 µM (inactive); in assay [11], > 100 µM (inactive); in [12], 19.8 µM (inactive). Moreover, the GI50 in assay [13] was 7.29 µM (inactive); in assay [14], 42.2 µM (inactive); in [15], 21.8 µM (inactive); in assay [16], 10.9 µM (inactive); in [17], > 43.2 µM (inactive); in [18] it was > 64.9 µM (inactive). For the same compound, the GI50 is 51.9 µM (inactive) in assay [19] and 24.4 µM (inactive) in [20].

`CN(C)c1ccc(/C=c2\c3ccccc3n3c2cc(-c2ccccc2)[n+]3C)cc1`: the GI50 was 0.213 µM (active) in assay [1]; 0.261 µM (active) in [2]; 0.383 µM (active) in [3]; 0.149 µM (active) in [4]; 0.0853 µM (active) in assay [5]; 0.0916 µM (active) in [6]. The GI50 was 0.185 µM (active) in assay [7]; 0.0304 µM (active) in [8]; 0.365 µM (active) in assay [9]; 0.118 µM (active) in assay [10]; 0.303 µM (active) in [11]; 1.42 µM (inactive) in assay [12]. Moreover, the GI50 in assay [13] was < 0.01 µM (active); in assay [14] it was 0.0335 µM (active); in assay [15], 0.0726 µM (active); in assay [16], 0.16 µM (active); in assay [17] it was 0.103 µM (active); in assay [18], 0.32 µM (active). Moreover, the GI50 was 0.0322 µM (active) in assay [19] and 0.365 µM (active) in [20].
